Assay results as given in ChEMBL document CHEMBL6083185, “Unraveling the future: Innovative design strategies and emerging challenges in HER2-targeted tyrosine kinase inhibitors for cancer therapy” (Eur J Med Chem, 2024).
pIC50: −log10 of the molar value.

Assays:
[1] = biological target: T1, Receptor tyrosine-protein kinase erbB-2 (Homo sapiens, UniProt P04626); test: Inhibition of HER2 (unknown origin)
BaF3 = test: Antiproliferative activity against mouse BaF3 cells harboring HER2 YVMA mutant measured for 24 hrs by CellTiter-Glo assay; assay type: functional, cell-based; conditions: BaF3, 24 h
[2] = biological target: T1, Receptor tyrosine-protein kinase erbB-2; test: Inhibition of flag-tagged HER2 (unknown origin) extracted from Escherichia coli
[3] = Half life in human; assay type: ADME
BT-474 [4] = test: Antiproliferative activity against human BT-474 cells; assay type: functional, cell-based
[5] = biological target: T2, Epidermal growth factor receptor (Homo sapiens, UniProt P00533)
Description: Inhibition of EGFR (unknown origin)

[6] = Antiproliferative activity against human NCI-H1975 cells harboring EGFR L858R mutant assessed as reduction in cell viability measured after 72 hrs by MTT assay; assay type: functional, cell-based; conditions: NCI-H1975, 72 h
[7] = biological target: T1, Receptor tyrosine-protein kinase erbB-2; test: Inhibition of wild-type HER2 phosphorylation in human BT-474 cells; assay type: cell-based
[8] = biological target: T2, Epidermal growth factor receptor; test: Inhibition of human wild type EGFR using PolyEY as substrate pre-incubated for 30 mins followed by substrate addition and measured for 60 mins by spectrophotometric analysis
[9] = biological target: T1, Receptor tyrosine-protein kinase erbB-2; test: Inhibition of human wild type HER2 using PolyEY as substrate pre-incubated for 30 mins followed by substrate addition and measured for 60 mins by spectrophotometric analysis
NCI-N87 [10] = test: Antiproliferative activity against human NCI-N87 cells; assay type: functional, cell-based
[11] = Clearance in rat; assay type: ADME; conditions: in vivo
SK-BR-3 = test: Antiproliferative activity against human SK-BR-3 cells assessed as reduction in cell growth incubated for 72 hrs by MTT assay; assay type: functional, cell-based; conditions: SK-BR-3, 72 h
[12] = Metabolic stability in human liver microsomes assessed as half life incubated for 60 mins by LC-MS/MS analysis; assay type: ADME, Microsome
NCI-N87 [13] = test: Antiproliferative activity against human NCI-N87 cells assessed as cell growth measured for 48 hrs by MTT assay; assay type: functional, cell-based; conditions: NCI-N87, 48 h
BT-474 [14] = test: Antiproliferative activity against human BT-474 cells assessed as reduction in cell growth; assay type: functional, cell-based
[15] = biological target: Receptor tyrosine-protein kinase erbB-2 (Homo sapiens, UniProt P04626, D769H); test: Inhibition of HER2 D769H mutant (unknown origin)
[16] = Metabolic stability in human liver microsomes assessed as half life; assay type: ADME, Microsome
[17] = biological target: Receptor tyrosine-protein kinase erbB-2 (Homo sapiens, UniProt P04626, D769Y); test: Inhibition of HER2 D769Y mutant (unknown origin)
Sequence of Receptor tyrosine-protein kinase erbB-2 (Homo sapiens, UniProt P04626, D769Y) (P04626 23-1255 D769Y limits assumed): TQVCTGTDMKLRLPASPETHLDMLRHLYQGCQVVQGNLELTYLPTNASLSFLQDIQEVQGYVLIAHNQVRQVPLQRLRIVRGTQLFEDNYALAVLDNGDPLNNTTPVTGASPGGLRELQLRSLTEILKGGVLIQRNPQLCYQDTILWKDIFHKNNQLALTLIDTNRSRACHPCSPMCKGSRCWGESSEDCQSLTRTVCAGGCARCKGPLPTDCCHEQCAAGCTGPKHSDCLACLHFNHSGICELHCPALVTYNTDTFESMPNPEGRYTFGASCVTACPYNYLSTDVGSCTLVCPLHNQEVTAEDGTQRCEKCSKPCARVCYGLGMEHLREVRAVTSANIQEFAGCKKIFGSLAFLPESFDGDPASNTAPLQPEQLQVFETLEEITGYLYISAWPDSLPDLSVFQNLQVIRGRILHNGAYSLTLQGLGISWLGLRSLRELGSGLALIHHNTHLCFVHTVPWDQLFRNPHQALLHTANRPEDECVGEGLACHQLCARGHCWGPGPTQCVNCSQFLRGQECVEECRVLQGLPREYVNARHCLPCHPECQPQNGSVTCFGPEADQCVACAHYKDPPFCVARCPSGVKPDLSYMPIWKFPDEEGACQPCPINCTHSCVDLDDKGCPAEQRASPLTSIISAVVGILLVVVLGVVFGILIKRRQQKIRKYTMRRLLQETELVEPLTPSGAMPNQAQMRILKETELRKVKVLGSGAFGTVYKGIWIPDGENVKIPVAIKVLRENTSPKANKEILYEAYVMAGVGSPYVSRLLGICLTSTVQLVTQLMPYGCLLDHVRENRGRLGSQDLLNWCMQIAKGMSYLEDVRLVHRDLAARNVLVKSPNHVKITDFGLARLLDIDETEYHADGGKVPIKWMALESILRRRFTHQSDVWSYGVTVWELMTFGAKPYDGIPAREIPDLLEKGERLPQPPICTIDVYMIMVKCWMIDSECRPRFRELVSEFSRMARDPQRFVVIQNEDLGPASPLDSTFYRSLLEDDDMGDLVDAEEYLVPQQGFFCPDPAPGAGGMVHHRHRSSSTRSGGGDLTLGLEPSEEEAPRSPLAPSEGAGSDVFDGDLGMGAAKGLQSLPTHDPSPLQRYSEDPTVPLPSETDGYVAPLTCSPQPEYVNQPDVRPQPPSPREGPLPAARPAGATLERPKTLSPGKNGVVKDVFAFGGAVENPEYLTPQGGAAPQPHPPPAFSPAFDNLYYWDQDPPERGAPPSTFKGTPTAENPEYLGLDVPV

T1 sequence (P04626 whole entry): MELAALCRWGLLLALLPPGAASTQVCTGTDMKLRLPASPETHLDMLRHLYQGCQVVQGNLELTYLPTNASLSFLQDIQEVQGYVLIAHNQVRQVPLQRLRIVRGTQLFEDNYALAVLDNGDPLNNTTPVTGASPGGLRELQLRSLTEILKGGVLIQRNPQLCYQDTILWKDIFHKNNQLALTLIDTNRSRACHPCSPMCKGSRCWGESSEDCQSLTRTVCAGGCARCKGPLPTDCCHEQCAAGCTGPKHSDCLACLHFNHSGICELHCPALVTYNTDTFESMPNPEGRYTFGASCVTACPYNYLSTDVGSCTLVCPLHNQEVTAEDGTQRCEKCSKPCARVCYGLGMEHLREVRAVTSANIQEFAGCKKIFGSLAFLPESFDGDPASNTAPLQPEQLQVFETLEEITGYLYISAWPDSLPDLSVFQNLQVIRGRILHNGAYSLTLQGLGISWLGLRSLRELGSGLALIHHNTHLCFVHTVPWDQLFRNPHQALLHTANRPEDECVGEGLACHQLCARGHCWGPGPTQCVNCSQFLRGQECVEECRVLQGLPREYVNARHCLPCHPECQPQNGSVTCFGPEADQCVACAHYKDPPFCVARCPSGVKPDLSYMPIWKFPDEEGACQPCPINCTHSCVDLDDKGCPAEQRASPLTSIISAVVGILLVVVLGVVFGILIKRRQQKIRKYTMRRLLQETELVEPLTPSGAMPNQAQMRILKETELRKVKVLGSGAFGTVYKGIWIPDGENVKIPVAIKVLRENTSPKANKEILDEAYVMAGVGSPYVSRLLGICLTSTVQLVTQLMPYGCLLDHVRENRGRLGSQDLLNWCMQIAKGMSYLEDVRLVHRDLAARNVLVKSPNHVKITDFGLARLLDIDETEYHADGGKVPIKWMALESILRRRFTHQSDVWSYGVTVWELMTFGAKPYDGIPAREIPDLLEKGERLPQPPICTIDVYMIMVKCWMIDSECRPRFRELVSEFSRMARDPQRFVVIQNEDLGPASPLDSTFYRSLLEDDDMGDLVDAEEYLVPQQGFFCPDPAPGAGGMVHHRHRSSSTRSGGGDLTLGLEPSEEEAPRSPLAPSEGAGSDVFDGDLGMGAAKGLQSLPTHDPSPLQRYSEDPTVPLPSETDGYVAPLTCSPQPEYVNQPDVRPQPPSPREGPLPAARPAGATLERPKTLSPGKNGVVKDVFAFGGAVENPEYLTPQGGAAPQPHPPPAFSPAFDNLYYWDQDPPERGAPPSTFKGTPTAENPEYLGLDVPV
T2 sequence (P00533 whole entry): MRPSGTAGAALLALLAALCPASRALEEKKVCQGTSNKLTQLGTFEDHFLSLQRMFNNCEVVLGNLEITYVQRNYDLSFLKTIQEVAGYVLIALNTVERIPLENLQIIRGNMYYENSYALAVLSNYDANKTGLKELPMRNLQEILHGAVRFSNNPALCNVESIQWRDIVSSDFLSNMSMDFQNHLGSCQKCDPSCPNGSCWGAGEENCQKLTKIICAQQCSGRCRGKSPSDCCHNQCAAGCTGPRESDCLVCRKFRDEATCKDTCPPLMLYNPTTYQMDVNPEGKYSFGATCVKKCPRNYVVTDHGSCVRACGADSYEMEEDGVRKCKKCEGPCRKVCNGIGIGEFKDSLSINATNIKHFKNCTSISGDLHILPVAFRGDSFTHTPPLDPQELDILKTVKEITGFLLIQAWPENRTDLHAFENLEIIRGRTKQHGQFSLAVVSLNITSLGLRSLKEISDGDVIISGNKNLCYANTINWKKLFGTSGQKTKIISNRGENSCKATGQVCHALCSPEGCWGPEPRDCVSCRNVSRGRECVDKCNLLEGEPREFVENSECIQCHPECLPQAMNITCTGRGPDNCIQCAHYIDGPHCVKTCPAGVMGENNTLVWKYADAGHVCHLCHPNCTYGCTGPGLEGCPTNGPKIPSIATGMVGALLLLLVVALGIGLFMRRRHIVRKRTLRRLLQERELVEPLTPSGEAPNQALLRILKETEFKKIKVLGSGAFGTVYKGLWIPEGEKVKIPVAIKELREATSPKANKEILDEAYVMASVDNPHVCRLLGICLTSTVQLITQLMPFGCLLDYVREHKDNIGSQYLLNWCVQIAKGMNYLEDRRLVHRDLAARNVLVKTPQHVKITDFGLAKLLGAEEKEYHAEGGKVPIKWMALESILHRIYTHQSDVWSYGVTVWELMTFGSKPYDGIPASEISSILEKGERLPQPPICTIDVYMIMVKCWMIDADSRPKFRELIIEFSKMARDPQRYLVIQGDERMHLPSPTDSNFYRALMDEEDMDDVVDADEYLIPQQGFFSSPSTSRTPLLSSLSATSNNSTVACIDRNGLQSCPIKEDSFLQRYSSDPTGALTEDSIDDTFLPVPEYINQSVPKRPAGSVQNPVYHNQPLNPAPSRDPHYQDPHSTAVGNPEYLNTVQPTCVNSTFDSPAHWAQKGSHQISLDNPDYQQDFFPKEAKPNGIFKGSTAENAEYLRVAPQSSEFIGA
Sequence of Receptor tyrosine-protein kinase erbB-2 (Homo sapiens, UniProt P04626, D769H) (P04626 23-1255 D769H limits assumed): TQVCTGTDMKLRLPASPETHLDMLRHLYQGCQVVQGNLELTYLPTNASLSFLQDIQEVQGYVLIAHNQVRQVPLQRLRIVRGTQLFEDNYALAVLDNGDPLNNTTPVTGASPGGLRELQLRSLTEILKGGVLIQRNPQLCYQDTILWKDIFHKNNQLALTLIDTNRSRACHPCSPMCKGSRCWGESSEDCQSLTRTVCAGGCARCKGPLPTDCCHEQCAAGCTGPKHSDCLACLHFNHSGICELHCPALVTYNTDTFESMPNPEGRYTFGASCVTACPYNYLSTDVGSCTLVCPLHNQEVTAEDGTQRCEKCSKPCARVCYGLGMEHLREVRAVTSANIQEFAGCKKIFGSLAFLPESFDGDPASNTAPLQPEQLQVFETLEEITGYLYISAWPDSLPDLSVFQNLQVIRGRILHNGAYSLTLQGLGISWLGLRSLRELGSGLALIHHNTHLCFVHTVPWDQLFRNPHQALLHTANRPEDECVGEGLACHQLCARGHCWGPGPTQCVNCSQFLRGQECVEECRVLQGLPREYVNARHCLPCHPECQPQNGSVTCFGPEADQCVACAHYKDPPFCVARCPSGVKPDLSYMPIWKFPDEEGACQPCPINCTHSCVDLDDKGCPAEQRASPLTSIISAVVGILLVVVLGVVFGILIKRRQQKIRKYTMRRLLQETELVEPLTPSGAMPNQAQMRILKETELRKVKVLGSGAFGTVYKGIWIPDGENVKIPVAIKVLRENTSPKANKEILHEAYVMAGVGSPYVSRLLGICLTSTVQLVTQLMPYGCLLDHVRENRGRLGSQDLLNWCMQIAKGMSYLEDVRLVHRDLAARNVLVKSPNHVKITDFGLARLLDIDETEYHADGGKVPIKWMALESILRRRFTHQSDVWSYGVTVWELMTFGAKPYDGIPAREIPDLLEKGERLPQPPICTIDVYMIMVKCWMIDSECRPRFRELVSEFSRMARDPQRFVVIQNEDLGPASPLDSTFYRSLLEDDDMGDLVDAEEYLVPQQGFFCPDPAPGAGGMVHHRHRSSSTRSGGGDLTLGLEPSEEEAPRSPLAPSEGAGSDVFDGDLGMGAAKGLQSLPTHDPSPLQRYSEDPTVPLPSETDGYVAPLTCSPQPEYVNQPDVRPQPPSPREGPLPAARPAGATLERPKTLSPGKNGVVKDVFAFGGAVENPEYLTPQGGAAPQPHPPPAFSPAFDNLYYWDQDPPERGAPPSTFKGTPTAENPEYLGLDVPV

SMILES | pIC50 [1] | pIC50 [5] | other results
C=CC(=O)Nc1cccc(-c2c(-c3ccc(N4CCN(C)CC4)cc3)[nH]c3ncnc(Nc4ccc(OCc5ccccn5)c(Cl)c4)c23)c1 | ~8.64 | – | –
C=CC(=O)Nc1cccc(-c2c[nH]c3ncnc(Nc4ccc(OCc5ccccn5)c(Cl)c4)c23)c1 | – | – | pIC50 (BaF3): 7.77
CN1CCN(CCCOc2ccc3ncnc(Nc4ccc(OCc5cccc(F)c5)c(Cl)c4)c3c2)CC1 | – | – | pIC50 [2]: 7.92; half-life [3]: 0.957 h; pIC50 (BT-474 [4]): 7.10
C=CC(=O)N1CCN(C(=O)Oc2cc3c(Nc4cccc(Cl)c4F)ncnc3cc2OC)[C@H](C)C1 | 6.82 | – | –
C=CC(=O)N1C[C@@H]2C[C@H]1CN2C(=O)Oc1cc2c(Nc3ccc(Cl)c(Cl)c3F)ncnc2cc1OC | 8.22 | – | –
C=CC(=O)N1CCC[C@@H](n2nc(C(=O)Nc3ccc(CC(=O)N(C)C)c(C)c3C)c3c(N)ncnc32)C1 | 7.79 | 7.19 | –
Cc1cc(Nc2ncnc3cccc(O[C@H]4CCN(C)CC4(F)F)c23)ccc1Oc1ccn2ncnc2c1 | – | – | pIC50 [7]: 8.24
COc1cc2c(Nc3ccc(Oc4ccn5ncnc5c4)c(C)c3)ncnc2cc1OCCCN1CCN(CCCCCCCNc2ccc3c(c2)C(=O)N(C2CCC(=O)NC2=O)C3=O)CC1 (centres undefined) | 10.40 | – | –
C=CC(=O)N1CCN(c2ncc3ncnc(Nc4ccc(Oc5ccn6ncnc6c5)c(C)c4)c3n2)CC1 | – | – | pIC50 [8]: 5.66; pIC50 [9]: 8.24; pIC50 (BaF3): 8.24
COc1cc2ncnc(Nc3ccc(Oc4cccc5ccc(C)nc45)c(C)c3)c2cc1OC | 7.85 | 7.96 | –
COCCOc1cc2ncnc(Nc3ccc(Oc4cccc5ccc(C)nc45)c(C)c3)c2cc1OCCOC | 7.92 | 7.92 | –
COCCOc1ccc2ncnc(Nc3ccc(Oc4cccc5ccc(C)nc45)c(C)c3)c2c1 | 7.38 | 6.84 | –
C=CC(=O)N1CCC[C@@H](n2nc(-c3ccc(OCc4cccc(C)n4)cc3)c3c(N)ncnc32)C1 | 7.79 | 9.92 | –
C=CC(=O)N1CCN(c2ncc3ncnc(Nc4ccc(Oc5ccccc5)c(C)c4)c3n2)CC1 | – | – | pIC50 [8]: 6.70; pIC50 [9]: 7.92; pIC50 (BaF3): 7.92
Cc1ccc2cccc(Oc3ccc(Nc4ncnc5ccc(NC6CCCC6)cc45)cc3C)c2n1 | 8.10 | 6.81 | pIC50 (SK-BR-3): 6.62
COc1ccc2c(Nc3ccc(Oc4cccc5ccc(C)nc45)c(C)c3)ncnc2c1 | 6.62 | 6.78 | –
Cc1ccc2cccc(Oc3ccc(Nc4ncnc5ccc(NC(=O)C6CCCC6)cc45)cc3C)c2n1 | 6.50 | 5.70 | –
C=CC(=O)N1CCN(c2ncc3ncnc(Nc4ccc(Oc5ccc6c(c5)ncn6C)c(C)c4)c3n2)CC1 | – | – | pIC50 [8]: < 8.30; pIC50 [9]: 7.80; pIC50 (BaF3): 7.80
Cc1cc(Nc2ncnc3cccc(OC4CCN(C)CC4)c23)ccc1Oc1ccn2ncnc2c1 | – | – | pIC50 [7]: 7.74
Cc1cc(Nc2ncnc3ccc(NC(=O)/C=C/[C@H]4CCCN4C)cc23)ccc1Oc1ccn2ncnc2c1 | – | – | half-life [12]: > 116 h; pIC50 (NCI-N87 [13]): 8.58; pIC50 (BT-474 [14]): 8.62
CCOc1cc2ncc(C#N)c(Nc3ccc(OCc4ccccn4)c(Cl)c3)c2cc1NC(=O)/C=C/[C@H]1CCCN1C [PYROTINIB] | 7.42 | – | –
CCOc1cc2ncnc(Nc3ccc(Oc4ccn5ncnc5c4)c(C)c3)c2cc1NC(=O)/C(F)=C/[C@H]1CCCN1C [SPH-5030] | 8.45 | 8.09 | pIC50 [15]: > 9.00; pIC50 (BT-474 [4]): 8.70; pIC50 (NCI-N87 [10]): 8.96; half-life [16]: 9.24 h; pIC50 [17]: > 9.00
C=CC(=O)NC1CCN(c2ncc3ncnc(Nc4ccc(Oc5ccc6c(c5)ncn6C)c(C)c4)c3n2)CC1 [ZONGERTINIB] | 7.89 | – | –

Further lines, with some results ahead:

pIC50 [1] | pIC50 [5] | SMILES | other results
8.66 | 8.15 | CCOc1cc2ncc(C#N)c(Nc3ccc(Oc4ccn5ncnc5c4)c(C)c3)c2cc1NC(=O)/C=C/CN(C)C | –
– | 9.00 | CCOCCOc1cc2ncnc(Nc3ccc(OCc4ccccn4)c(Cl)c3)c2cc1NC(=O)/C=C/CN(C)C | pIC50 [6]: 7.22
8.85 | 8.92 | Cc1cc(Nc2ncnc3ccc(NC(=O)/C=C/[C@H]4CCCN4C)cc23)ccc1Oc1cc2ncnn2cn1 | –
8.78 | 8.87 | CCOc1cc2ncnc(Nc3ccc(Oc4ccn5ncnc5c4)c(C)c3)c2cc1NC(=O)/C=C/[C@H]1CCCN1C | pIC50 (BT-474 [4]): 8.67; pIC50 (NCI-N87 [10]): 8.95
7.92 | – | O=C(Nc1ccc2ncnc(Nc3ccc(OCc4cccc(F)c4)c(Cl)c3)c2c1)c1ccc(CNCCO)cc1 | clearance [11]: ≤ 9.6 mL/min/kg; pIC50 (BT-474 [4]): 6.70
8.77 | – | C=CC(=O)N1CCC(Oc2cc3c(Nc4ccc(Cl)c(Cl)c4F)ncnc3cc2OC)CC1 [POZIOTINIB] | –
8.10 | < 6.30 | Cc1cc(Nc2ncnc3ccc(NC4=NC(C)(C)CO4)cc23)ccc1Oc1ccn2ncnc2c1 [TUCATINIB] | –
